Reference: ChEMBL document CHEMBL3813616, “Discovery of novel 7-azaindoles as PDK1 inhibitors” (Bioorg Med Chem Lett, 2016)

How the values were obtained:
[1] = target: Phosphatidylinositol 4,5-bisphosphate 3-kinase catalytic subunit alpha isoform (Homo sapiens, UniProt P42336); assay: Inhibition of PI3K alpha (unknown origin) at 10 uM
[2] = target: Phosphatidylinositol 4,5-bisphosphate 3-kinase catalytic subunit delta isoform (Homo sapiens) (UniProt O00329); assay: Inhibition of PI3K delta (unknown origin) at 10 uM
[3] = species on record: Homo sapiens; assay: Selectivity ratio of IC50 for PI3K alpha (unknown origin) to IC50 for human His6-tagged PDK1
[4] = test system: MAPK3 (ERK1); assay: Inhibition of human MAPK3 (2 to 379 residues) assessed as enzyme activity at 1 uM using 33P ATP by radioactive filter binding assay; set-up: scale not given: the % may be the effect or the level left
[5] = target: Tyrosine-protein kinase JAK2 (Homo sapiens) (UniProt O60674); assay: Inhibition of JAK2 (unknown origin) assessed as enzyme activity at 1 uM using 33P ATP by radioactive filter binding assay; set-up: scale not given: the % may be the effect or the level left
[6] = target: Mitogen-activated protein kinase 9 (Homo sapiens) (UniProt P45984); assay: Inhibition of human JNK2 (1 to 424 residues) assessed as enzyme activity at 1 uM using 33P ATP by radioactive filter binding assay; set-up: scale not given: the % may be the effect or the level left
[7] = target: Serine/threonine-protein kinase MARK1 (Homo sapiens) (UniProt Q9P0L2); assay: Inhibition of human MARK1 (2 to 795 residues) assessed as enzyme activity at 1 uM using 33P ATP by radioactive filter binding assay; set-up: scale not given: the % may be the effect or the level left
[8] = target: MAP/microtubule affinity-regulating kinase 4 (Homo sapiens) (UniProt Q96L34); assay: Inhibition of human MARK4 (2 to 752 residues) assessed as enzyme activity at 1 uM using 33P ATP by radioactive filter binding assay; set-up: scale not given: the % may be the effect or the level left
[9] = target: Mitogen-activated protein kinase kinase kinase 1 (Homo sapiens) (UniProt Q13233); assay: Inhibition of human MEKK1 (877 to 1563 residues) assessed as enzyme activity at 1 uM using 33P ATP by radioactive filter binding assay; set-up: scale not given: the % may be the effect or the level left
[10] = target: Dual specificity mitogen-activated protein kinase kinase 2 (Homo sapiens) (UniProt P36507); assay: Inhibition of human MKK2 (2 to 400 residues) assessed as enzyme activity at 1 uM using 33P ATP by radioactive filter binding assay; set-up: scale not given: the % may be the effect or the level left
[11] = target: Mitogen-activated protein kinase kinase kinase 9 (Homo sapiens) (UniProt P80192); assay: Inhibition of human MLK1 (132 to 413 residues) assessed as enzyme activity at 1 uM using 33P ATP by radioactive filter binding assay; set-up: scale not given: the % may be the effect or the level left
[12] = target: Serine/threonine-protein kinase 16 (Homo sapiens) (UniProt O75716); assay: Inhibition of human MPSK1 (1 to 305 residues) assessed as enzyme activity at 1 uM using 33P ATP by radioactive filter binding assay; set-up: scale not given: the % may be the effect or the level left
[13] = target: NUAK family SNF1-like kinase 1 (Homo sapiens) (UniProt O60285); assay: Inhibition of human NUAK1 (2 to 660 residues) assessed as enzyme activity at 1 uM using 33P ATP by radioactive filter binding assay; set-up: scale not given: the % may be the effect or the level left
[14] = target: Serine/threonine-protein kinase PAK 2 (Homo sapiens) (UniProt Q13177); assay: Inhibition of human PAK2 (1 to 524 residues) assessed as enzyme activity at 1 uM using 33P ATP by radioactive filter binding assay; set-up: scale not given: the % may be the effect or the level left
[15] = target: Protein kinase C gamma type (Homo sapiens) (UniProt P05129); assay: Inhibition of human PKCgamma (1 to 697 residues) assessed as enzyme activity at 1 uM using 33P ATP by radioactive filter binding assay; set-up: scale not given: the % may be the effect or the level left
[16] = target: Ribosomal protein S6 kinase alpha-1 (Homo sapiens) (UniProt Q15418); assay: Inhibition of human RSK1 (1 to 735 residues) assessed as enzyme activity at 1 uM using 33P ATP by radioactive filter binding assay; set-up: scale not given: the % may be the effect or the level left
[17] = target: Serine/threonine-protein kinase TAO1 (Homo sapiens) (UniProt Q7L7X3); assay: Inhibition of human TAO1 (1 to 356 residues) assessed as enzyme activity at 1 uM using 33P ATP by radioactive filter binding assay; set-up: scale not given: the % may be the effect or the level left
[18] = target: Serine/threonine-protein kinase tousled-like 1 (Homo sapiens) (UniProt Q9UKI8); assay: Inhibition of human TLK1 (1 to 766 residues) assessed as enzyme activity at 1 uM using 33P ATP by radioactive filter binding assay; set-up: scale not given: the % may be the effect or the level left
[19] = target: High affinity nerve growth factor receptor (Homo sapiens) (UniProt P04629); assay: Inhibition of human TrkA (441 to 760 residues) assessed as enzyme activity at 1 uM using 33P ATP by radioactive filter binding assay; set-up: scale not given: the % may be the effect or the level left
[20] = target: Dual specificity protein kinase TTK (Homo sapiens) (UniProt P33981); assay: Inhibition of human TTK (1 to 857 residues) assessed as enzyme activity at 1 uM using 33P ATP by radioactive filter binding assay; set-up: scale not given: the % may be the effect or the level left
[21] = target: Tyrosine-protein kinase ABL1 (Homo sapiens) (UniProt P00519); assay: Inhibition of human ABL (118 to 535 residues) assessed as enzyme activity at 1 uM using 33P ATP by radioactive filter binding assay; set-up: scale not given: the % may be the effect or the level left
[22] = target: Aurora kinase A (Homo sapiens) (UniProt O14965); assay: Inhibition of human Aurora A (2 to 403 residues) assessed as enzyme activity at 1 uM using 33P ATP by radioactive filter binding assay; set-up: scale not given: the % may be the effect or the level left
[23] = target: Calcium/calmodulin-dependent protein kinase kinase 1 (Homo sapiens) (UniProt Q8N5S9); assay: Inhibition of CAMKK1 (unknown origin) assessed as enzyme activity at 1 uM using 33P ATP by radioactive filter binding assay; set-up: scale not given: the % may be the effect or the level left
[24] = target: Casein kinase II subunit alpha (Homo sapiens) (UniProt P68400); assay: Inhibition of human CK2alpha (2 to 391 residues) assessed as enzyme activity at 1 uM using 33P ATP by radioactive filter binding assay; set-up: scale not given: the % may be the effect or the level left
[25] = target: Dual specificity protein kinase CLK2 (Homo sapiens) (UniProt P49760); assay: Inhibition of human CLK2 (138 to 499 residues) assessed as enzyme activity at 1 uM using 33P ATP by radioactive filter binding assay; set-up: scale not given: the % may be the effect or the level left
[26] = target: Ephrin type-B receptor 1 (Homo sapiens) (UniProt P54762); assay: Inhibition of human EPHB1 (565 to 984 residues) assessed as enzyme activity at 1 uM using 33P ATP by radioactive filter binding assay; set-up: scale not given: the % may be the effect or the level left
[27] = target: Ephrin type-A receptor 4 (Homo sapiens) (UniProt P54764); assay: Inhibition of human EPHA4 (570 to 986 residues) assessed as enzyme activity at 1 uM using 33P ATP by radioactive filter binding assay; set-up: scale not given: the % may be the effect or the level left
[28] = target: Ephrin type-B receptor 4 (Homo sapiens) (UniProt P54760); assay: Inhibition of human EPHB4 (561 to 987 residues) assessed as enzyme activity at 1 uM using 33P ATP by radioactive filter binding assay; set-up: scale not given: the % may be the effect or the level left
[29] = target: Receptor tyrosine-protein kinase erbB-4 (Homo sapiens) (UniProt Q15303); assay: Inhibition of human HER4 (706 to 991 residues) assessed as enzyme activity at 1 uM using 33P ATP by radioactive filter binding assay; set-up: scale not given: the % may be the effect or the level left
[30] = target: Homeodomain-interacting protein kinase 1 (Homo sapiens) (UniProt Q86Z02); assay: Inhibition of human HIPK1 (158 to 555 residues) assessed as enzyme activity at 1 uM using 33P ATP by radioactive filter binding assay; set-up: scale not given: the % may be the effect or the level left

Phosphatidylinositol 4,5-bisphosphate 3-kinase catalytic subunit delta isoform (Homo sapiens), sequence (O00329 whole entry, canonical isoform): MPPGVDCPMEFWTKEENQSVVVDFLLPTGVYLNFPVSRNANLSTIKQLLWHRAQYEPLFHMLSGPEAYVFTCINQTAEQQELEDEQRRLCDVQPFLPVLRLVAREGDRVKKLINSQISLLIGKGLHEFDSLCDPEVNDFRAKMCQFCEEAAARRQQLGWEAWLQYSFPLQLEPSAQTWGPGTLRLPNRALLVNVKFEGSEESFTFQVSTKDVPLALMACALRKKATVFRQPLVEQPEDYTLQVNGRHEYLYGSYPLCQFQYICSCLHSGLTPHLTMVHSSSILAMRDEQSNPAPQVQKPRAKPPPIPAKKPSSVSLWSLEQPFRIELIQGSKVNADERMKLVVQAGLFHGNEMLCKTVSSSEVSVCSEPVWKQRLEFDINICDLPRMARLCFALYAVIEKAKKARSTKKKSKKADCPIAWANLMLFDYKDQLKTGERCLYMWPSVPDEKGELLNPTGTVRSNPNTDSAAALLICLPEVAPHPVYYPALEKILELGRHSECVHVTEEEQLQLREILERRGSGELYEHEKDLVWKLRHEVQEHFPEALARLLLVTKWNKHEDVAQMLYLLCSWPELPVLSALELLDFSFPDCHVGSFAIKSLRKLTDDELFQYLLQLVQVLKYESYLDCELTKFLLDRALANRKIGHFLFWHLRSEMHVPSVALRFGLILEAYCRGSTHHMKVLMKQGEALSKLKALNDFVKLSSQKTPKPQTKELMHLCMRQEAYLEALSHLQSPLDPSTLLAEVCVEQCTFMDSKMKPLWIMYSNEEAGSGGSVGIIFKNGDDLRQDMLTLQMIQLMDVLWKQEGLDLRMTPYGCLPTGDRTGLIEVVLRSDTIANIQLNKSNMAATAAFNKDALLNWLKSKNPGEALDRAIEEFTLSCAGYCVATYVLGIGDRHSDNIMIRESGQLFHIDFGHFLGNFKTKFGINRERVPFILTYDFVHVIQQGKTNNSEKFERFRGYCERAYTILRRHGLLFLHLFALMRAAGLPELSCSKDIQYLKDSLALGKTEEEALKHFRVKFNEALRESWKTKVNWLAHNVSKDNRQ
Mitogen-activated protein kinase 9 (Homo sapiens), sequence (P45984 whole entry, looked up, the tested form may be a part): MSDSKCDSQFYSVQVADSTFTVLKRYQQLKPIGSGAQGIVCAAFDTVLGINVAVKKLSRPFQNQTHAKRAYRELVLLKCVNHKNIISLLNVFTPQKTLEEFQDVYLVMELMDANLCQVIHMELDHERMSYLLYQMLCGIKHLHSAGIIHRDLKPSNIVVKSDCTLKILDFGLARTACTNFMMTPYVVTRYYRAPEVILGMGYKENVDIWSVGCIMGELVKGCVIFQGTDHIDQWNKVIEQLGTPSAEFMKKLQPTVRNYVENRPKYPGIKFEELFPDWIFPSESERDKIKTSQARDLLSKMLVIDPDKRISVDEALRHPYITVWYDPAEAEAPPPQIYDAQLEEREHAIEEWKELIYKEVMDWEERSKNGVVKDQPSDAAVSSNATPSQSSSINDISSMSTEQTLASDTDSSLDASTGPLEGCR
Dual specificity protein kinase TTK (Homo sapiens), sequence (P33981 whole entry, the tested form may be a part): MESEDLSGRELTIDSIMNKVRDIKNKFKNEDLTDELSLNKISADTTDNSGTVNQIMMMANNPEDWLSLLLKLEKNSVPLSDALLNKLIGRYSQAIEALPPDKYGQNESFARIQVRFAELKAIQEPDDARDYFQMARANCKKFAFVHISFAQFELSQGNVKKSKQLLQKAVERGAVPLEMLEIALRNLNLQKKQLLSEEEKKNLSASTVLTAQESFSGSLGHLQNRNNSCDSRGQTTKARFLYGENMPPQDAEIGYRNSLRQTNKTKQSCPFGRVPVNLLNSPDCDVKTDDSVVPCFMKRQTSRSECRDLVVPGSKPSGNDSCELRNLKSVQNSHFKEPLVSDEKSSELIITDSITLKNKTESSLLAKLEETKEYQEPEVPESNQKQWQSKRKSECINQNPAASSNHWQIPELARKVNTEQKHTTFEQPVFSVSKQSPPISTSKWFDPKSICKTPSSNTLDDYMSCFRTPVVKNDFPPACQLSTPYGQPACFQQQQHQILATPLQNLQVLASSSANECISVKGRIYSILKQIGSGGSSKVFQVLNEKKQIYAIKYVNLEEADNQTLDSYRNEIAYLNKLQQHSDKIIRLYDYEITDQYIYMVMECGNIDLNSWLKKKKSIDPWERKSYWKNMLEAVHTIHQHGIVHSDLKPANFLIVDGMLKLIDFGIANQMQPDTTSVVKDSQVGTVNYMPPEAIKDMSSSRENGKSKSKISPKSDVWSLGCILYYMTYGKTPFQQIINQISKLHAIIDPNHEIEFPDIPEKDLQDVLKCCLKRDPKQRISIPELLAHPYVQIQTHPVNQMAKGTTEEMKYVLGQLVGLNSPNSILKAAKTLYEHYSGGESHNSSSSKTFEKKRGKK
Dual specificity protein kinase CLK2 (Homo sapiens), sequence (P49760 whole entry, looked up, the tested form may be a part): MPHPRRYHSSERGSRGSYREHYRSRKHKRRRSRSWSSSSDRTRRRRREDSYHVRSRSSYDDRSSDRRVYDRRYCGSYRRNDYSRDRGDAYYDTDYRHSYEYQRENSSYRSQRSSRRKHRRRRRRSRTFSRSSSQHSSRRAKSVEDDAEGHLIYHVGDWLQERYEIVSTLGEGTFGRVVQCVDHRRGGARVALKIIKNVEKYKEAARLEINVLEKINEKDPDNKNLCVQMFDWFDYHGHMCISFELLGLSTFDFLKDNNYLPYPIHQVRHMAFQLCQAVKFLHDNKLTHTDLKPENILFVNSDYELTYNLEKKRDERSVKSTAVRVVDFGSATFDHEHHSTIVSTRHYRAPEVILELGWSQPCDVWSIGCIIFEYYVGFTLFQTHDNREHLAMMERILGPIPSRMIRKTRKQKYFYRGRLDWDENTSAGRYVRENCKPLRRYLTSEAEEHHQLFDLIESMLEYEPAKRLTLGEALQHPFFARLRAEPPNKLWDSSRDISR
Mitogen-activated protein kinase kinase kinase 9 (Homo sapiens), sequence (P80192 whole entry, looked up, the tested form may be a part): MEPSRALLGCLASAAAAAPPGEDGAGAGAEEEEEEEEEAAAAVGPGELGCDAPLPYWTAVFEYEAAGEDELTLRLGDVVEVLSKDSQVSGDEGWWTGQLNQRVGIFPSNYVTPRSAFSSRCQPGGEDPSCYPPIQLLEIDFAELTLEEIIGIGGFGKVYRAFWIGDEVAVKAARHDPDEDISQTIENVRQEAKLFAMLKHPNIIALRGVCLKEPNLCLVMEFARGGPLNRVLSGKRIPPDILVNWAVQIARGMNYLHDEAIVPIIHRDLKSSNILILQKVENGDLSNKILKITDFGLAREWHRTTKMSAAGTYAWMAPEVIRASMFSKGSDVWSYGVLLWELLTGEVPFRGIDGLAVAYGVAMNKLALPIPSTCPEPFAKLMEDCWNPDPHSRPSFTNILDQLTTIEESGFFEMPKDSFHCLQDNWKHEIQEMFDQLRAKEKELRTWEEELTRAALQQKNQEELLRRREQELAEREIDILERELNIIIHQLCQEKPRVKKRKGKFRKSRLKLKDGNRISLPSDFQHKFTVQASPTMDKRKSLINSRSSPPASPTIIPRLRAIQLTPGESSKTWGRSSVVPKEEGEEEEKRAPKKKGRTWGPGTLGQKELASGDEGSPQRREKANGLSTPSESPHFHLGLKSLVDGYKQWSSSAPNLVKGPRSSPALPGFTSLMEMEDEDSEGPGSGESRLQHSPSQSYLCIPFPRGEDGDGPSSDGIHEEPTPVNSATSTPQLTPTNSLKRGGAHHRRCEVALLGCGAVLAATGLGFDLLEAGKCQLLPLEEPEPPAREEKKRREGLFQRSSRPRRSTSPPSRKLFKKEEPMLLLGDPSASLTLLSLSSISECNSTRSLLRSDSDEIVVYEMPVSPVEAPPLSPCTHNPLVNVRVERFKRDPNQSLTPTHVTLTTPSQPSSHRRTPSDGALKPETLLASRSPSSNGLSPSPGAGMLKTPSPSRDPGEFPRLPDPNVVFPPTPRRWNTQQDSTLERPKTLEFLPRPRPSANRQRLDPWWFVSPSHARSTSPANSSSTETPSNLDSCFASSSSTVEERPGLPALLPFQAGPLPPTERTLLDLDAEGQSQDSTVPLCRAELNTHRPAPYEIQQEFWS
Tyrosine-protein kinase JAK2 (Homo sapiens), sequence (O60674 whole entry, the tested form may be a part): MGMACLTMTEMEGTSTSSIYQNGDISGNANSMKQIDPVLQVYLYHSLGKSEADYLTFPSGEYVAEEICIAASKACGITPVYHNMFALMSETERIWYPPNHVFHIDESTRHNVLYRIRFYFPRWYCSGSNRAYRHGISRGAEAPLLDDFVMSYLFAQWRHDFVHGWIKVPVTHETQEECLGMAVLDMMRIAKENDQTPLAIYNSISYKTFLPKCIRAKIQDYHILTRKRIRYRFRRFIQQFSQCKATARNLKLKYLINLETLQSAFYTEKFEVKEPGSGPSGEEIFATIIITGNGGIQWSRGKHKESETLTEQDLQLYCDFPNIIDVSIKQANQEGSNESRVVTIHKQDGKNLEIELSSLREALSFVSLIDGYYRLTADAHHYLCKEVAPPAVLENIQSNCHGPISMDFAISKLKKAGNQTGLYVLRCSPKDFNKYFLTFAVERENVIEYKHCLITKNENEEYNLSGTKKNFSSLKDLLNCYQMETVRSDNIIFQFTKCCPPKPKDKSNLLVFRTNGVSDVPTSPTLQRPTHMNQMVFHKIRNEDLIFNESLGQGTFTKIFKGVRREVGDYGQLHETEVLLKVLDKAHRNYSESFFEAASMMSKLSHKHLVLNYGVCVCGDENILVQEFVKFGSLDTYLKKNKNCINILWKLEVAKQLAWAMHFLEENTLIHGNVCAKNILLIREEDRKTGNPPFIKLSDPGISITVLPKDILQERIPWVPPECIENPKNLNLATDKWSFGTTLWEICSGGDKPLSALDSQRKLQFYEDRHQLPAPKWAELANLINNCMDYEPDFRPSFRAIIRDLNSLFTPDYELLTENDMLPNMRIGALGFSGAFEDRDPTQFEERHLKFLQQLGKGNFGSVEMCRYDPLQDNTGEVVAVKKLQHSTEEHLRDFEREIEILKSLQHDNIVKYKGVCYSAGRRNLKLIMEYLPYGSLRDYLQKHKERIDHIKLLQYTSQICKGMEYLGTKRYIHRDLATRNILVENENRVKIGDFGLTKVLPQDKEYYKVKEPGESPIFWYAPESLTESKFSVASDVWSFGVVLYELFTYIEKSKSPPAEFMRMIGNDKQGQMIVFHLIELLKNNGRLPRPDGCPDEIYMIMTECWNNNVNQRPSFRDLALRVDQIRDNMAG

## CCc1cc(-c2c[nH]c3ncc(-c4cnn(C5CCNCC5)c4)cc23)nc(N)n1
[1]
  inhibition: 80%
[2]
  inhibition: 77%

## CCCCc1cc(-c2c[nH]c3ncc(-c4cnn(C5CCNCC5)c4)cc23)nc(N)n1
[3]
  Ratio IC50: 65
[4]
  Activity: -32%

## Nc1nccc(-c2c[nH]c3ncccc23)n1 [MERIOLIN 1]
[5]
  Activity: -25%
[6]
  Activity: -1%
[7]
  Activity: -26%
[8]
  Activity: 35%
[9]
  Activity: -10%
[10]
  Activity: -34%
[11]
  Activity: -20%
[12]
  Activity: -4%
[13]
  Activity: -31%
[14]
  Activity: 1%
[15]
  Activity: -5%
[16]
  Activity: -69%
[17]
  Activity: -15%
[18]
  Activity: -14%
[19]
  Activity: -30%
[20]
  Activity: -57%
[21]
  Activity: 1%
[22]
  Activity: 1%
[23]
  Activity: -33%
[24]
  Activity: -3%
[25]
  Activity: -98%
[26]
  Activity: -10%
[27]
  Activity: 15%
[28]
  Activity: 4%
[29]
  Activity: -17%
[30]
  Activity: -75%
